Two compounds from US11326207B2, “Sequencing using non-natural nucleotides” (Ultima Genomics, Inc., priority 2017, dated 2022) can be followed below.

Holding throughout (type): biochemical
Experiment [1] concerns Bst 2.0 DNA polymerase. Briefly: Homopolymer assays of nucleotide analogs (Example 10). Conditions: Natural Nucleotide C (dCTP = 1); template oligo 333, primer 221L. The procedure:
(§1) A homopolymer assay was performed to investigate the effectiveness of E-dCTP and P-dUTP as nucleotide analogs of dCTP. 50 μl solutions containing a template nucleic acid molecule and primer and Bst 2.0 DNA polymerase are placed in a microplate reader and the fluorescence of the solution is measured in kinetic mode. A fluorescein attached to an oligonucleotide (indicated with a * in FIG. 7) was quenched in the substrate due to the proximity of complementary G bases. Addition of dCTP and/or dCTP analogs causes extension of the 3′ end of the primer, formation of double-stranded DNA, and unquenching of the fluorescein. The fluorescence increases with the addition of multiple nucleotides.
Additional homopolymer assays were performed according to the procedure outlined in Example 8 using different nucleotides and nucleotide analogs.
To test for dUTP or TTP incorporation, oligo 332 was used as a template and oligo 221L was used as a primer. To test for dCTP incorporation, oligo 333 was used as a template and oligo 221L was used as a primer. To test for dGTP incorporation, oligo 334 was used as a template and oligo 221L was used as a primer. To test for dATP incorporation, hairpin oligo 221 was used as both a primer and template.

A further experiment has as its target T1, Bst DNA polymerase (Geobacillus stearothermophilus, UniProt P52026).
T1 sequence (P52026 1-876): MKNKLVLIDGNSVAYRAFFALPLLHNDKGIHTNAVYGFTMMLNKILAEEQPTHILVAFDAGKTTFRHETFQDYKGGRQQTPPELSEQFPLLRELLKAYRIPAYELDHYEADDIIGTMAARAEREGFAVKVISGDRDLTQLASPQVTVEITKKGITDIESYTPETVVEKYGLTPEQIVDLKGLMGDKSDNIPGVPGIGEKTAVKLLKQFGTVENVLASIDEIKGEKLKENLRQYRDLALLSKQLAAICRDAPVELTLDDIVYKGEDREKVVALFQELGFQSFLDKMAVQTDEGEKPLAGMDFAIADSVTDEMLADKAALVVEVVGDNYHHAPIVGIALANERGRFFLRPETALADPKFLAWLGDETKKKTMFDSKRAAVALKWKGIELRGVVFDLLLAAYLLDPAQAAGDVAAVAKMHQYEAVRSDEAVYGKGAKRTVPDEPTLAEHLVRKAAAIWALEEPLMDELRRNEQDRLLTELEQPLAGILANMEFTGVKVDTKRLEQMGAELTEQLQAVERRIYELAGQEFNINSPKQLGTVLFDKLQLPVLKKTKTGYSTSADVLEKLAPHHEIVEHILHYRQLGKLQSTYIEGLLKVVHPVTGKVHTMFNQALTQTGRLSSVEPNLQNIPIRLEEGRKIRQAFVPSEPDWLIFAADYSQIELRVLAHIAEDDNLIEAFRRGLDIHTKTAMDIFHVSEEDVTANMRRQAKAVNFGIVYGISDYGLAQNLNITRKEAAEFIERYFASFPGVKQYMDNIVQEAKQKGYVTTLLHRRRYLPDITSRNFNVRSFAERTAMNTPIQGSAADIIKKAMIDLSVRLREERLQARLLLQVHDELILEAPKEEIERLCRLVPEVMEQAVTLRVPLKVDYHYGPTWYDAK
Briefly: Replacement of dCTP with P-dCTP, context metric (Example 10). From the text:
A microscope slide surface was modified with polyaminosilane to allow the attachment of 1 micron beads each containing one of three different oligonucleotide templates. To each template was bound an oligonucleotide primer and Bst DNA polymerase. Solutions of mixtures of labeled and unlabeled nucleotide, of one type at a time, were exposed to the surface, followed by a wash solution. The fluorescence of labeled beads was detected and quantitated. The fluorescence label was cleaved by treatment with tris(hydroxypropyl)phosphine (THP) after each step.
Context was measured for each experiment. Context is given by the context metric, C, which is defined as the (maximum-minimum signal)/average signal.
Experiments were performed replacing dCTP with P-dCTP for three different oligonucleotide templates.

Experiment [2] concerns Bst 2.0 DNA polymerase. Nature of the experiment: Homopolymer assay of dCTP analogs (Example 9). Conditions: rates of fluorescence, homopolymer template. The procedure: as §1

The structures appear in SMILES notation. Some results are limits rather than exact numbers.

On to `Nc1ccn([C@H]2C[C@H](O)[C@@H](COP(=O)(O)OP(=O)(O)OP(=O)(O)O)O2)c(=O)n1` [dCTP, deoxycytidine triphosphate], for which the “Relative Rate in Homopolymer Assay” value in the experiment on Bst 2.0 DNA polymerase [1] is on record as 1. Moreover, the “C (context metric)” value came out at 0.85 at Bst DNA polymerase (Oligonucleotide template 1), 0.72 at Bst DNA polymerase (Oligonucleotide template 2) and 0.70 at Bst DNA polymerase (Oligonucleotide template 3).
For `C#Cc1cn([C@H]2C[C@H](O)[C@@H](COP(=O)(O)OP(=O)(O)OP(=O)(O)O)O2)c(=O)nc1N` [E-dCTP, 5-ethynyl-2′-deoxycytidine 5′triphosphate], the “Relative Rate in Homopolymer Assay” value in the experiment on Bst 2.0 DNA polymerase [1] was >1. For the same compound, the “rate of incorporation compared with natural dCTP” value with Bst 2.0 DNA polymerase [2] is listed as “much faster than that of natural dCTP”.
